The values below come from ChEMBL document CHEMBL1156366, “Sequoiatones C-f, constituents of the redwood endophyte Aspergillus parasiticus” (J Nat Prod, 2001).

Structures are written as SMILES.

The nature of this data set: Toxicity against brine shrimp. The data set is classed as organism-based. The conditions noted are these: artemia, in vivo; read-out: LD50 (the source's name).
Regarding `COC(=O)C1=C2C=COC(C)=C2[C@](C)(O)/C1=C/C(=O)[C@@H](C)CCCCCCO` [SEQUOIATONE E], the LC50 was found to be 640 µM.

Consider `CCCCCC[C@H](C)C(=O)/C=C1\C(C(=O)OC)=C2C=C(C)OC=C2[C@]1(C)O` [SEQUOIATONE F], for which the LC50 was found to be 260 µM.

Take `CCCCCC[C@H](C)C(=O)/C=C1\C(C(=O)OC)=C2C=COC(C)=C2[C@]1(C)O` [SEQUOIATONE C]: the LC50 was determined as 260 µM.

Turning to `COC(=O)C1=C2C=C(C)OC=C2[C@](C)(O)/C1=C/C(=O)[C@@H](C)CCCCCCO` [SEQUOIATONE D], the LC50 turned out to be 1300 µM.
